Data taken from patent publication US5393744A, “Glucosyl phosphotriesters of thymidine” (Institut Pasteur, priority 1988, dated 1995).

Legend:
Assay type in all cases: cell-based
HIV-1 virus [1] = assay: Infection of activated lymphocytes by the lysates of infected macrophages (co-culture, reverse transcriptase activity)
Experimental: (§1) The drugs 6651, AZT, 6714 and ddT were diluted in DMSO.
(§2) The virus HIV-1 utilized is derived from a culture supernatant of CEM-LAV 1 cells; these latter are maintained by the addition at each passage (every 3 or 4 days) of uninfected CEM cells. The titre of the virus in the clarified culture supernatant is higher than 10^6 cpm/ml in reverse transcriptase activity and 10^3 infectious units/ml on lymphocytes of sero-negative donors.
The lymphocytes were isolated from the peripheral blood of sero-negative donors on a Ficoll^R gradient (MSL, Eurobio). The lymphocytes thus obtained were stimulated with the phytohemaglutinin p(PHA-p) for 3 days before their utilization.
The lymphocytes are cultivated in RPMI 1640 medium, supplemented with 10% of fetal calf serum, 10% of interleukin 2, 2 μg/ml of polybrene, 1% of glutamine, 1% of antibiotics.
(§3) The macrophages were obtained from a deleucocytation pocket. The mononucleated cells were separated on a Ficoll^R gradient. The cells were adjusted to 50.10^6 cells/ml in the RPMI 1640 medium (MBA) containing 20% fetal calf serum (Flow), 10 mM Hepes (Sigma), 1% of PSN and 1% of glutamine (Gibco). After 1 h of incubation at 4° C. with gentle shaking, the macrophages agglutinate among themselves. The agglutinated macrophages are sedimented for 15 mn at 4° C. The supernatant containing an enrichment in lymphocytes was removed and the pellet enriched in macrophages was diluted to 5.10^6 cells/ml in the medium previously described. The cell suspension was then placed in Petri dishes of 60 mm diameter and placed at 37° C. for 1 h 30. The unattached cells are removed and the washed cell carpet was then detached with a scraper. The cells thus recovered were used directly for the study.
(§4) For this study, the production of HIV-1 virus by infected macrophages in the presence or absence of the drugs 6714 or ddT and 6651 or AZT were monitored either in continuous culture for at least 30 days or after lysis of the macrophages at day +14 and infection of lymphocytes by this lysate.
The quantity of cells placed in culture and the conditions of infection are identical with those previously described.
At day 14 after infection, the macrophages were lysed by two successive freezings to -20° C. and thawings at 37° C. The lysate recovered was then utilized as inoculum to infect 3.10^6 activated lymphocytes derived from a sero-negative donor. After 1 h of absorption, the lymphocytes were adjusted to 10^6 cells per ml and the drugs were added at the concentrations corresponding to those of the lysate.
The lymphocytes were subcultured every 3 or 4 days and an assay of the reverse transcriptase was carried out starting from the culture supernatant at each passage.
(§5) 3) Measurement of the reverse transcriptase activity
(§6) The reverse transcriptase activity is assayed starting from 1 ml of culture supernatant concentrated 100 times by ultra-centrifugation for 5 mn at 95.000 rpm (Rotor TL 100^R Beckman).
(§7) The pellet is resuspended in 10 μl of NTE Triton^R ×100 0.1%.
(§8) After 1 h at 37° C., the acid-insoluble products are precipitated by 20% trichloroacetic acid, filtered onto 0.45μ Millipore^R and the B radioactivity is measured with the aid of a Kontron scintillation counter.

[2] = system: recombinant retrovirus of murine origin (MoMLV); assay: Residual virus (clones of βgal+ cells) after infection of mouse 3T3 test cells with LacZ recombinant MoMLV retrovirus; conditions: 3T3 cells; for residual virus (% not inhibited) at 100 µM / residual virus (% not inhibited) at 10 µM / residual virus (% not inhibited) at 1 µM / residual virus (% not inhibited) at 0.1 µM: NIH3T3, 48 hours after infection, mean of several experiments, read-out: % of the residual virus (not inhibited by the product); for residual virus (% not inhibited) at 100 µM: 10^-4 M; for residual virus (% not inhibited) at 10 µM: 10^-5 M; for residual virus (% not inhibited) at 1 µM: 10^-6 M; for residual virus (% not inhibited) at 0.1 µM: 10^-7 M
Experimental: The virus used is a recombinant retrovirus of murine origin (MoMLV) in which a reporter gene (LacZ) has been introduced.
Fixed amounts of LacZ recombinant retroviruses are placed in the presence of mouse infectable test cells (3T3) with or without the product to be tested. To each recombinant retrovirus corresponds a clone of β gal^+ cells. The number of clones of βgal^+ cells is read 48 hours after the infection. The % of the residual virus (not inhibited by the product) is indicated in the following table (mean of several independent experiments): […]

HIV-1 virus [3] = assay: Replication of HIV-1 in macrophages of sero-negative donors, continuous culture (reverse transcriptase activity)
Experimental: as §1, §2, §3, §4
For each test, 15.10^6 cells were or were not infected with the HIV-1 virus (6000 cpm/10^6 cells). After 1 h of absorption at 37° C., the cells were placed in 6-wells Costar plates and 5.10^-5 M or 10^-5 M of the drugs 6714 and ddT and 10^-5 M, 10^-6 M or 10^-7 M of the drugs 6651 and AZT were added to the culture medium. The medium was changed every 3 or 4 days and the reverse transcriptase activity was determined in the culture supernatant. The drugs were added at each passage to the culture medium at the respective concentrations indicated above.
as §5, §6, §7, §8

Cc1cn([C@H]2C[C@H](N=[N+]=[N-])[C@@H](CO)O2)c(=O)[nH]c1=O [AZT, 3'-azido 3'-deoxythymidine, reference compound]
viral production on the lymphocytes with the lysates of treated macrophages (HIV-1 virus [1]; 10^-5 M, 10^-6 M and 10^-7 M (FIG. 4d)): no viral production is obtained on the lymphocytes | multiplication of the HIV-1 virus at the interior of the macrophage (HIV-1 virus [1]; whatever the concentration tested, 10^-5 M, 10^-6 M and 10^-7 M): there is no multiplication of the HIV-1 virus at the interior of the macrophage | residual virus (% not inhibited) at 100 µM [2]: 0% | residual virus (% not inhibited) at 10 µM [2]: 0% | residual virus (% not inhibited) at 1 µM [2]: 0% | residual virus (% not inhibited) at 0.1 µM [2]: 1% | retroviral activity (in words) ([2]; recombinant MoMLV): active by themselves | proliferation of the HIV-1 virus in the macrophages (HIV-1 virus [3]; 10^-5 M, 10^-6 M and 10^-7 M): block the proliferation of the HIV-1 virus in the macrophages

CCCCCCCCCCCCCCCCOP(=O)(OCC1CCC(n2cc(C)c(=O)[nH]c2=O)O1)OCC1OC(O)C(O)C(O)C1O (stereo not shown) [compound 6650, 6-glucosyl hexadecyl 5'-(3'-deoxy) thymidinyl]
residual virus (% not inhibited) at 10 µM [2]: 79% | residual virus (% not inhibited) at 1 µM [2]: 78% | residual virus (% not inhibited) at 0.1 µM [2]: 96%

Cc1cn([C@H]2C[C@H](N=[N+]=[N-])[C@@H](COP(=O)(O)OC[C@H]3OC(O)[C@H](O)[C@@H](O)[C@@H]3O)O2)c(=O)[nH]c1=O (stereo partly shown) [compound 6715, 6-glucosyl 5' (3'-azido)-thymidinyl phosphate]
residual virus (% not inhibited) at 100 µM [2]: 0% | residual virus (% not inhibited) at 10 µM [2]: 0% | residual virus (% not inhibited) at 1 µM [2]: 3%

Cc1cn([C@H]2CC[C@@H](CO)O2)c(=O)[nH]c1=O [ddT, 3'-deoxy-thymidine, reference compound]
viral production by activated lymphocytes (HIV-1 virus [1]; 5.10^-5 M): seems to be lower | viral production by activated lymphocytes, compared to untreated lysate (HIV-1 virus [1]; 10^-5 M): comparable to the untreated lysate | viral production by activated lymphocytes with lysates of infected treated macrophages (general statement) (HIV-1 virus [1]; lysate at day 14): make it possible to obtain a vital production by activated lymphocytes | multiplication of the HIV-1 virus in the macrophages (HIV-1 virus [1]; whatever the concentration tested, 5.10^-6 M or 10^-5 M): there is multiplication of the HIV-1 virus in the macrophages, but the escape of the virus seems to be blocked | residual virus (% not inhibited) at 10 µM [2]: 78% | residual virus (% not inhibited) at 1 µM [2]: 87% | residual virus (% not inhibited) at 0.1 µM [2]: 101% | proliferation of the HIV-1 virus in the macrophages (HIV-1 virus [3]; 5.10^-5 M and 10^-5 M): block the proliferation of the HIV-1 virus in the macrophages
